Data taken from patent US10420758B2, “Indolinyl-sulfonamide inhibitors of tankyrase and methods of use thereof” (The Board of Regents of the University of Texas System, priority 2015, dated 2019).

How the values were obtained:
PARP7 = PARP7 (Homo sapiens, UniProt Q7Z3E1); test: PARP profiling, parsylation of immobilized histone; format: biochemical; settings: IWR compounds 10 μM
Description: (§1) Performed by BPS Bioscience Inc., San Diego by following the BPS PARP or TNKS assay kit protocols. The enzymatic reactions were conducted in duplicate at room temperature for 1 hr in a 96 well plate coated with histone substrate. […] of reaction buffer (Tris.HCl, pH 8.0) contains NAD^+, biotinylated NAD^+, activated DNA, recombinant PARP enzyme and 10 μM of the test compound. […] After enzymatic reactions, 50 μL of Streptavidin-horseradish peroxidase was added to each well and the plate was incubated at room temperature for an additional 30 min. 100 μL of developer reagents were added to wells and luminescence was measured using a BioTek Synergy™ 2 microplate reader.

Tnks enzymes = settings: cited from earlier work
Axin2 in DLD-1 cells = test: Expression of Axin2 in DLD-1 cells; format: cell-based; settings: exposure for 2 h
Text: Aberrant transcriptional induction of Wnt/β-catenin target genes is typically observed in CRC cells that harbor loss-of-function mutations in the APC tumor suppressor. […] See Chen et al. (2007), which is incorporated herein by reference.

[1] = tested on: Tnks 1 and 2, Axin, β-catenin in SW480 cells; test: Western blot of Tnks, Axin and β-catenin levels in SW480 cells; format: cell-based; settings: SW480 cells (truncated Apc), FIG. 1A
Description: (FIG. 1A) Biochemical markers of Tnks inhibition associated with the Wnt/β-catenin pathway. […] (FIG. 1B) A biochemical screen to identify additional Tnks inhibitors from the IWR collection of Wnt pathway inhibitors. The effects of the IWR compounds on Tnks 1 and 2, β-catenin, and acetylated tubulin (Ac-Tub; loading control) expression levels were determined in SW480 cells by Western blot analysis.
For Western blot analysis cell lysates were generated with either PBS-NP40 buffer [phosphate-buffered saline (PBS)/1% NP40], or Tris-Triton X-100 buffer [50 mM Tris (pH 8), 200 mM NaCl, 1 mM EDTA, 1% Triton X-100, 10% glycerol, 1 mM DTT, 0.5 mM deoxycholate]. Both buffers were supplemented with protease inhibitor cocktail (Sigma). […] The lysates were cleared by centrifugation at 15,000 rpm for 10 min.

zebrafish = test: Zebrafish caudal fin regeneration after chemical removal; format: in vivo; settings: resected caudal fins, water containing compound for 7 d, then removal
Text: Achieving transient repression of pathological Wnt response without incurring permanent damage to normal stem cell function is a key anticancer therapeutic goal.

[2] = molecular target: T1, catalytic domain of human Tnks1 (Homo sapiens, UniProt O95271); test: Crystal structures of IWR compound/Tnks1 complexes, binding pocket; settings: crystal structure, FIGS. 3A-3C
T1 construct: The catalytic domain of human Tnks1 (residues 1105-1313) was expressed; His6 (with TEV site) (N, cleaved yes); made in house; host or cells: E. coli BL21 (DE3)
T1 sequence (O95271 1105-1313): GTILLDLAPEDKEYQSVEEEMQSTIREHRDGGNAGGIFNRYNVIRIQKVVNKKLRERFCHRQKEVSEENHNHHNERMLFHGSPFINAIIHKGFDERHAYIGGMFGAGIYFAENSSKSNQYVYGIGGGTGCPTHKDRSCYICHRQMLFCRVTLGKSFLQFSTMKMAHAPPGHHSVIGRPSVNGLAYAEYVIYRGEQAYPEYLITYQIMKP
Description: Protein Expression and Purification.
The catalytic domain of human Tnks1 (residues 1105-1313) was expressed by using a modified pET28 vector, which encodes an N-terminal His6-tag and a cleavage site for the Tobacco Etch Virus (TEV) protease. Protein expression was induced by 0.1 mM IPTG at 15° C. when the culture of the bacteria strain BL21 (DE3) transformed with the plasmid reached O.D. of 1.5. Cells were harvested 12 hrs after induction and lysed by Frenchpressing. The lysate was cleared by centrifugation at 15000 rpm for 1 hr. The protein was purified by Ni-NTA-based affinity chromatography and ion exchange chromatography. The N-terminal His6-tag was removed by overnight TEV protease treatment at 4° C. Purified protein was concentrated and stored in −80° C.
Crystallization, Data Collection and Structure Determination.
The purified Tnks1 catalytic domain at 5 mg/mL (0.22 mM) mixed with IWR-1 (the exo-form), IWR-3 and IWR-8 at 0.25 mM were subjected to crystallization trials by using sitting-drop 96-well plates. Following initial hits of crystallization, large crystals were obtained by hanging-drop vapor diffusion in conditions optimized based on the initial conditions. Crystals of the Tnks1/IWR-1 complex were grown at 20° C. in 0.1 M Bis-Tris (pH 5.3), 0.15 M MgCl2 and 20-23% PEG3350. […]

TNKS2 = TNKS2 (Homo sapiens, UniProt Q9H2K2); test: PARP profiling, parsylation of immobilized histone; format: biochemical; settings: IWR compounds 10 μM
Sequence of TNKS2 (Q9H2K2 whole entry): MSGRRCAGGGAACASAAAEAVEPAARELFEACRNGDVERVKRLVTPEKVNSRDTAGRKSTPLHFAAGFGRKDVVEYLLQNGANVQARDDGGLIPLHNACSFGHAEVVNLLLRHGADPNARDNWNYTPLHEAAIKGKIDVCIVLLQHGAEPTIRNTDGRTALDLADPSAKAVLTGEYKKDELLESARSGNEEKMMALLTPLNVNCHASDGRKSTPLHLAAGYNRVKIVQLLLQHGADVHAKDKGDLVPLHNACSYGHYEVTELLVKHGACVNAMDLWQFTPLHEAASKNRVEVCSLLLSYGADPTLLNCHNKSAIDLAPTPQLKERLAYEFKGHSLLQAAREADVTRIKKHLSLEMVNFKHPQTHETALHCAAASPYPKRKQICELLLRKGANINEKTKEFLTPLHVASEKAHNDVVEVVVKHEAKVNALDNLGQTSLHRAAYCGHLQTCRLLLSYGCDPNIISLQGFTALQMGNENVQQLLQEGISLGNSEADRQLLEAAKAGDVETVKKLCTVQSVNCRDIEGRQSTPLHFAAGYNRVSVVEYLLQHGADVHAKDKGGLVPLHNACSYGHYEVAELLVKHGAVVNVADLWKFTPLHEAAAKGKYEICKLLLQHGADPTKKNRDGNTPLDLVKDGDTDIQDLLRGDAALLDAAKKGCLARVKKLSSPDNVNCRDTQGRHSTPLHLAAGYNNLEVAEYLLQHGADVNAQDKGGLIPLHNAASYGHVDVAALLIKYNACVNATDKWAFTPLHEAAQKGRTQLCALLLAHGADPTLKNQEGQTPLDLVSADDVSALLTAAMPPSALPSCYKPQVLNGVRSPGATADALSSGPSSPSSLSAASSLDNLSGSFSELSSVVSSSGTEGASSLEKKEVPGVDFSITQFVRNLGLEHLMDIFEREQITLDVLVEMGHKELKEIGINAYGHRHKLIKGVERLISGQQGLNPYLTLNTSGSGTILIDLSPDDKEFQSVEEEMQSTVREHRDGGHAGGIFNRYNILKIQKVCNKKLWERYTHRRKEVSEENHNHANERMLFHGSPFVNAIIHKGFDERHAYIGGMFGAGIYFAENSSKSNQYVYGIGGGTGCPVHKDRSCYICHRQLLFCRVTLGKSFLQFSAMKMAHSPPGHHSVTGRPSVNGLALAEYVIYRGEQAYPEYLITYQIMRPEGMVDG
Description: as §1

TNKS1 = TNKS1 (Homo sapiens, UniProt O95271); test: PARP profiling, parsylation of immobilized histone; format: biochemical; settings: IWR compounds 10 μM
Sequence of TNKS1 (O95271 whole entry): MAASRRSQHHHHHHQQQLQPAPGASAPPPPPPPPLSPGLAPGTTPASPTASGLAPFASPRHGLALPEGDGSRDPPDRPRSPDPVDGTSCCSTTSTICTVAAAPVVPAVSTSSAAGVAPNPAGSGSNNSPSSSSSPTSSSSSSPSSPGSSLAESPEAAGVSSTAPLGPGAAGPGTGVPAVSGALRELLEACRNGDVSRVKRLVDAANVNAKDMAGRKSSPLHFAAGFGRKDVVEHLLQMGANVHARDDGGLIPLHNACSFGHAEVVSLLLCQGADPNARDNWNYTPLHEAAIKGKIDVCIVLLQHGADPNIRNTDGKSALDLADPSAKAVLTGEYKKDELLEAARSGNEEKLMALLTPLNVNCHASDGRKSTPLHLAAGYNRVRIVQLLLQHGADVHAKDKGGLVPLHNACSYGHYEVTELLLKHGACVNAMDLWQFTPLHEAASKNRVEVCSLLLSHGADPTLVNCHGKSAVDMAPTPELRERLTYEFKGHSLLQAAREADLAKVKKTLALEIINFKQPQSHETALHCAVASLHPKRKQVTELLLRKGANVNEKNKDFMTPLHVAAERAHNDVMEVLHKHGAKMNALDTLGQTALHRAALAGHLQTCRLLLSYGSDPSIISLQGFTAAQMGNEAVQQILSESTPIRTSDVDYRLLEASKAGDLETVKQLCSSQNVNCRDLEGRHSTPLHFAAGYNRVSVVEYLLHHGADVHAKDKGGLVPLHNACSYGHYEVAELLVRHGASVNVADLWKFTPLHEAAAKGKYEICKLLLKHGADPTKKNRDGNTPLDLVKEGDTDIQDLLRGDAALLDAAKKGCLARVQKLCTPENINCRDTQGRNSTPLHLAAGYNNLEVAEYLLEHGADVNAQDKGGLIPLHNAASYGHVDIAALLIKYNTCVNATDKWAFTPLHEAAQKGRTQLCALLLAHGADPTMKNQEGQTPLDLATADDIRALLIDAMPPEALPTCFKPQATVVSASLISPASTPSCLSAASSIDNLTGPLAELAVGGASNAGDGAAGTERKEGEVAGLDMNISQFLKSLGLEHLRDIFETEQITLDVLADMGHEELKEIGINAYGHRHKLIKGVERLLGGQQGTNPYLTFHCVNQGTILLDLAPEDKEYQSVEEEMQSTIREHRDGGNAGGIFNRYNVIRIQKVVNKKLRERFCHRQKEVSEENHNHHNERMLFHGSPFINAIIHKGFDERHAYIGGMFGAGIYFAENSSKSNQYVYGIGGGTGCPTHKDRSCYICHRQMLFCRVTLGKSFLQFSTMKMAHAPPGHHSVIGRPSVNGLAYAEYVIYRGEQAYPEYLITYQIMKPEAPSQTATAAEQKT
Description: as §1

[3] = tested on: β-catenin activity in DLD-1 cells; test: Wnt/β-catenin specific luciferase reporter (SuperTopFlash) in DLD-1 cells; format: cell-based; settings: FIG. 2B
Description: Representative IWRs from each chemotype were evaluated for their ability to inhibit purified recombinant Tnks1 protein (Tnks1 […] protein). Parsylation of immobilized histone protein was determined by colorimetric detection of incorporated biotinylated NAD+ in 96 well format.
Luciferase Reporter Assays.
Assays were executed as described using a Dual Luciferase kit (Promega), and SuperTopFlash and control SV40-driven Renilla luciferase reporters (SV40-Ren luc) (Chen, et al., 2009).

[4] = molecular target: T2, purified Tnks1 SAM-PARP protein (Homo sapiens, UniProt O95271); test: In vitro Tnks activity assay, histone parsylation (HT Universal Color PARP Assay Kit); format: biochemical; settings: parsylation of immobilized histone, colorimetric, FIG. 2A
T2 construct: purified Tnks1 SAM-PARP protein; provided by Herwig Schüler (gift, not a vendor)
T2 sequence (O95271 1030-1317 limits assumed): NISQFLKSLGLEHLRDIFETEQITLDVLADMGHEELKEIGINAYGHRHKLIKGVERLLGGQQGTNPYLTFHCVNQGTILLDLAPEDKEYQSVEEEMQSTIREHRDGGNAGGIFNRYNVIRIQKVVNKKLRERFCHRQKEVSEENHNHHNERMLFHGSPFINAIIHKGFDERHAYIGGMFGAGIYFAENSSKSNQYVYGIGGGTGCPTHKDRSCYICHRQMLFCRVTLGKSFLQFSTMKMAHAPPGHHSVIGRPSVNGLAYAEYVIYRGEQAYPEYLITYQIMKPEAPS

SW403 cells = test: Cell growth of SW403 cells; format: cell-based; settings: FIG. 2C

Sequence of PARP7 (Q7Z3E1 whole entry): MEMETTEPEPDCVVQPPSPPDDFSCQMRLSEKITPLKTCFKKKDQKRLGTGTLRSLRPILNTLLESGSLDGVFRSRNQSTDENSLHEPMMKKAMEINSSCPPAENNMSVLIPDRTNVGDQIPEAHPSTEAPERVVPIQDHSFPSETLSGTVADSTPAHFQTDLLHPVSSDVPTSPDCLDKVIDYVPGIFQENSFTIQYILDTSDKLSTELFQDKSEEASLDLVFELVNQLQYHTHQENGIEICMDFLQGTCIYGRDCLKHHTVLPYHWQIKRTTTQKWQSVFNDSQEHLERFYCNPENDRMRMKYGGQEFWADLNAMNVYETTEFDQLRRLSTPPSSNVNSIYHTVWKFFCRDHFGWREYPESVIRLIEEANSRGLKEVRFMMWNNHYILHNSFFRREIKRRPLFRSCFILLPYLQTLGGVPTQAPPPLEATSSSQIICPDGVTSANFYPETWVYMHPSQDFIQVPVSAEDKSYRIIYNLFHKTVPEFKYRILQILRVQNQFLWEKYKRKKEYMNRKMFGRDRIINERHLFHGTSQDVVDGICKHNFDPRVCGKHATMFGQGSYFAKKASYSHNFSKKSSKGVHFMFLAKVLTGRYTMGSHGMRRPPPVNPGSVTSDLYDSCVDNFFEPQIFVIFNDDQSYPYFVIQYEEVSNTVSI

| SMILES | % inhibition (PARP7) | specificity for Tnks enzymes over several other PARPs compared to XAV-939 (Tnks enzymes) | expression of Axin2 (Axin2 in DLD-1 cells) | Tnks and Axin protein levels [1] | β-catenin protein level [1] | fin regeneration after chemically induced blockade (zebrafish) | binding pocket engaged in Tnks1 [2] | inhibition at 10 µM (TNKS2) | inhibition at 10 µM (PARP7) | inhibition at 10 µM (TNKS1) | β-catenin activity induced by loss of APC function [3] | ability to inhibit purified recombinant Tnks1 protein [4] | cell growth in a cancer cell line with compromised APC function (SW403 cells) |
| --- | --- | --- | --- | --- | --- | --- | --- | --- | --- | --- | --- | --- | --- |
| O=C(Nc1cccc2cccnc12)c1ccc(N2C(=O)[C@@H]3[C@H](C2=O)[C@@H]2C=C[C@H]3C2)cc1 [IWR-1] | 7% | ~100 fold | decrease in the expression of Axin2 | induce stabilization of both Tnks enzymes and Axin proteins | promote destruction of β-catenin | able to regenerate tissue to nearly normal levels after chemical removal | – | – | – | – | – | – | – |
| CCN(C(=O)C1CCN(S(=O)(=O)c2cc3c(cc2Br)CCN3C(C)=O)CC1)c1cccc(C)c1 [IWR-8] | – | – | – | – | – | – | engage the AD pocket | 99% | 8% | 99% | inhibits β-catenin activity induced by loss of APC function | directly target Tnks | inhibits cell growth |
